Reference: publication PMC12864978, “Covalent modification of a glutamic acid inspired by HaloTag technology” (Nature Communications, 2026)

Experiments:
Assay in all cases: In-lysate thermal proteome profiling (TPP)
[1] = target: Jurkat cell lysate proteome (Homo sapiens, UniProt O75044)
Protocol: (§1) Jurkat cells were grown to a density of 1.0–2.5 × 10⁶ cells/ml. A 100 ml aliquot of the suspension was divided equally into two Falcon tubes and chilled on ice for 2 min. Cells were pelleted by centrifugation at 350×g for 3 min at room temperature. After discarding the supernatant, the combined pellet was resuspended in 25 ml of ice-cold PBS buffer. The washing step—centrifugation at 350×g for 2 min at room temperature, followed by supernatant removal—was further repeated twice. Following the final wash, the cell pellet was resuspended in 1.5 ml of PBS containing 0.4% (v/v) NP40 alternative and flash-frozen in liquid nitrogen. […] The resulting lysate was separated by ultracentrifugation at 100,000×g for 20 min at 4 °C (Beckman Coulter Optima MAX-XP, MLA-80 rotor). The supernatant was carefully collected, snap-frozen in liquid nitrogen, and stored at −80 °C for subsequent analysis.
(§2) Protein concentration was quantified using the Bradford protein assay. […] Following incubation, each aliquot was further subdivided into nine 120 µl portions in PCR tubes. […] For analysis, 75 µl of each supernatant was allocated for mass spectrometry-based thermal protein profiling (TPP), while the remaining 25 µl was used for immunoblotting to assess PDEδ levels.
(§3) For mass spectrometric analysis, sample processing was further proceeded with reduction and alkylation, followed by acetone precipitation and tryptic digestion. Each digested aliquot was then labelled with isobaric TMT reagents (Thermo Fisher Scientific, A52047) corresponding to its specific temperature condition from the thermal shift assay.
(§4) Proteins were considered as stabilised or destabilised when, in all three replicates,
(§5) tailed p-values were determined by applying paired t-test comparing AUC of melting curves
(§6) between DMSO-treated and compound-treated conditions, OR
(§7) least ± 10 % (same direction) compared to the DMSO control.

[2] = target: Jurkat cell lysate proteome (Homo sapiens, UniProt P05388)
Protocol: as §1, §2, §3, §4, §5, §6, §7

[3] = target: T1, Jurkat cell lysate proteome (Homo sapiens, UniProt P24666)
T1 sequence (P24666 1-158): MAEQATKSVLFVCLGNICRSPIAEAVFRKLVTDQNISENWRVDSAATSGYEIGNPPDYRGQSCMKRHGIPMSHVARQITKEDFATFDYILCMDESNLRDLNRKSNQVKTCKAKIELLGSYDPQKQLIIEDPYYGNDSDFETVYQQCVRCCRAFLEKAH
Protocol: as §1, §2, §3, §4, §5, §6, §7

[4] = target: Jurkat cell lysate proteome (Homo sapiens, UniProt P49773)
Jurkat cell lysate proteome (Homo sapiens, UniProt P49773), sequence (P49773 whole entry): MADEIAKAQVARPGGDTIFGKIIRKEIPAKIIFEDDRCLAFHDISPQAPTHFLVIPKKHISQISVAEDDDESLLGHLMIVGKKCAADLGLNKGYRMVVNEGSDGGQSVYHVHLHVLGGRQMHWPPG
Protocol: as §1, §2, §3, §4, §5, §6, §7

[5] = target: Jurkat cell lysate proteome (Homo sapiens, UniProt P62318)
Jurkat cell lysate proteome (Homo sapiens, UniProt P62318), sequence (P62318 whole entry): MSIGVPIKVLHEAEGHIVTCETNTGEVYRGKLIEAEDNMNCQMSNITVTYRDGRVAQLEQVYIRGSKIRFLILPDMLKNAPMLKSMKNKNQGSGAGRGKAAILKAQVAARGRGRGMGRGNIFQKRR
Protocol: as §1, §2, §3, §4, §5, §6, §7

[6] = target: Jurkat cell lysate proteome (Homo sapiens, UniProt Q14108)
Jurkat cell lysate proteome (Homo sapiens, UniProt Q14108), sequence (Q14108 whole entry): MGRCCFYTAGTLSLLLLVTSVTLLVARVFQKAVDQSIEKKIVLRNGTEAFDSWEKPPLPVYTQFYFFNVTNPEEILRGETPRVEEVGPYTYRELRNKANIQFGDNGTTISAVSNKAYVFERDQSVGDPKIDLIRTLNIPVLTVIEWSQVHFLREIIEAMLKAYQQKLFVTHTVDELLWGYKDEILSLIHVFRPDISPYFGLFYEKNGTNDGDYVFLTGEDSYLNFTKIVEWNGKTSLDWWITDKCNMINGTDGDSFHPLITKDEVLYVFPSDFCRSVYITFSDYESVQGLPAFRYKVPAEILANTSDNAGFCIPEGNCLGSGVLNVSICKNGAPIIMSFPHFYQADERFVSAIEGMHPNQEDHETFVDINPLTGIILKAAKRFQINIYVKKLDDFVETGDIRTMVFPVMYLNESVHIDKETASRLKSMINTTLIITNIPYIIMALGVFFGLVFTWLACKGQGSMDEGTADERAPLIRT
Protocol: as §1, §2, §3, §4, §5, §6, §7

[7] = target: Jurkat cell lysate proteome (Homo sapiens, UniProt Q15382); conditions: 10 µM, 15 min
Jurkat cell lysate proteome (Homo sapiens, UniProt Q15382), sequence (Q15382 whole entry): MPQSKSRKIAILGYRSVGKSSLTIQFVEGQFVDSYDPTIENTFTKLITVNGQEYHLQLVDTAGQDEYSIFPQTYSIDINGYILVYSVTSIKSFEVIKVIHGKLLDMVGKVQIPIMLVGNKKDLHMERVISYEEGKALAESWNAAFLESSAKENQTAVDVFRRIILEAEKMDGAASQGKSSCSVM
Protocol: as §1, §2, §3, §4, §5, §6, §7

[8] = target: T2, Jurkat cell lysate proteome (Homo sapiens, UniProt Q99523)
T2 sequence (Q99523 78-831): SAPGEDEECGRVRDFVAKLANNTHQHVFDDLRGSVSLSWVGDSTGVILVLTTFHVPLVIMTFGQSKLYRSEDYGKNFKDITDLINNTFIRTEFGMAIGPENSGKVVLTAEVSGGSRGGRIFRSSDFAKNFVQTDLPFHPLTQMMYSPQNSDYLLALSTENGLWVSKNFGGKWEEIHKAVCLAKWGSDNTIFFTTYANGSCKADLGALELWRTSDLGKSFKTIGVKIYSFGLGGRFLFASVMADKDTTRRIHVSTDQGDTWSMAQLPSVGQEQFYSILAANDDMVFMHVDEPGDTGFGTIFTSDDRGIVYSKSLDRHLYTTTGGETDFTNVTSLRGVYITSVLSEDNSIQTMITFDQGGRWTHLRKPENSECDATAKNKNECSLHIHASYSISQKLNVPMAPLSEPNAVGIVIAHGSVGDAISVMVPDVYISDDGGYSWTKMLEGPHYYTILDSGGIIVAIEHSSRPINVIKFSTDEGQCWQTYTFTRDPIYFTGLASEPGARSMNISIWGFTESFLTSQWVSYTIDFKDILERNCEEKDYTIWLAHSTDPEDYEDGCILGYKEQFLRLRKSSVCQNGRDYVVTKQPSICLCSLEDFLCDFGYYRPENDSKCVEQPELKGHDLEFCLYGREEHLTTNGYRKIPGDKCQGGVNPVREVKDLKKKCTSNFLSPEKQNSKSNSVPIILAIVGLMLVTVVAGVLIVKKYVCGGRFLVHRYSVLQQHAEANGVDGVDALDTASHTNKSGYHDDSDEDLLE
Protocol: as §1, §2, §3, §4, §5, §6, §7

[9] = target: T3, Jurkat cell lysate proteome (Homo sapiens, UniProt Q9H2H9)
T3 sequence (Q9H2H9 1-487): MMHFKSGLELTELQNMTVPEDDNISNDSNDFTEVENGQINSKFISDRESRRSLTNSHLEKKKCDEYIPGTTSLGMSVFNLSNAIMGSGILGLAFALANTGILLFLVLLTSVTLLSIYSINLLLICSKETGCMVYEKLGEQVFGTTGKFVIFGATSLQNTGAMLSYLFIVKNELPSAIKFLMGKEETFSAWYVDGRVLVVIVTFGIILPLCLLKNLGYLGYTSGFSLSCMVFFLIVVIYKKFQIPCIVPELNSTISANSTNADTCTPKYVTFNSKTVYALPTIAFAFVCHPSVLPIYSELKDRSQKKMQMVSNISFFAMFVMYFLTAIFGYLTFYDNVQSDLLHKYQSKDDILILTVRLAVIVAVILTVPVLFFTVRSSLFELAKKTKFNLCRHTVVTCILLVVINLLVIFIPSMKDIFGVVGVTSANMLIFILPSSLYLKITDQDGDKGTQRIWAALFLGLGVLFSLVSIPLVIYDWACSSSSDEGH
Protocol: as §1, §2, §3, §4, §5, §6, §7

[10] = target: Jurkat cell lysate proteome (Homo sapiens, UniProt Q9UHA4)
Jurkat cell lysate proteome (Homo sapiens, UniProt Q9UHA4), sequence (Q9UHA4 whole entry): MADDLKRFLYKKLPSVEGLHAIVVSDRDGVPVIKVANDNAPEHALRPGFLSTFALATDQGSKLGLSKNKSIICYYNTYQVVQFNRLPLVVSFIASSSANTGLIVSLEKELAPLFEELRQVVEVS
Protocol: as §1, §2, §3, §4, §5, §6, §7

[11] = 10 µM, 15 min, listed as DeltaTag

Cc1ccc(-n2nc3c(=O)n(CCCCS(=O)(=O)N(CCc4cccc(CCBr)c4)CC4CCNCC4)nc(C)c3c2C)cc1 [6a] was tested, and the “ΔAUC SRGAP2” value ([1]; 10 µM, 15 min) was -2.5, the “ΔI67°C SRGAP2” value ([1]; 10 µM, 15 min) was -10 ± 7% and the “ΔAUC SRGAP2” value [1, 11] was −2.5. For the same compound, the ΔTm at 10 µM ([1]; read-out: ΔTm SRGAP2, 10 µM, 15 min) was -1.3 ± 1.1 °C, the “ΔAUC RPLP0” value ([2]; 10 µM, 15 min) was -2.9 and the “ΔI67°C RPLP0” value ([2]; 10 µM, 15 min) was -4 ± 5%. For the same compound, the ΔTm at 10 µM ([2]; read-out: ΔTm RPLP0, 10 µM, 15 min) was -5.2 ± 2.7 °C, the “ΔAUC ACP1” value ([3]; 10 µM, 15 min) was 2.1 and the “ΔI67°C ACP1” value ([3]; 10 µM, 15 min) was 0 ± 4%. The ΔTm at 10 µM ([3]; read-out: ΔTm ACP1, 10 µM, 15 min) was 2.3 ± 0.3 °C, the “ΔAUC HINT1” value ([4]; 10 µM, 15 min) was 3.6 and the “ΔI67°C HINT1” value ([4]; 10 µM, 15 min) was 3 ± 6%. For the same compound, the ΔTm at 10 µM ([4]; read-out: ΔTm HINT1, 10 µM, 15 min) was 4 ± 1.4 °C, the “ΔAUC SNRPD3” value ([5]; 10 µM, 15 min) was -2 and the “ΔI67°C SNRPD3” value ([5]; 10 µM, 15 min) was -9 ± 11%. For the same compound, the ΔTm at 10 µM ([5]; read-out: ΔTm SNRPD3, 10 µM, 15 min) was 0.8 ± 0.7 °C, the “ΔI67°C SCARB2” value ([6]; 10 µM, 15 min) was -14 ± 4% and the ΔTm at 10 µM ([6]; read-out: ΔTm SCARB2, 10 µM, 15 min) was 0.7 ± 2.1 °C. The “ΔAUC RHEB” value [7] was -1.5, the “ΔI67°C RHEB” value [7] was -6 ± 8% and the “ΔTm RHEB” value [7] was -0.9 ± 0.8 °C. The “ΔAUC RHEB” value ([7]; listed as DeltaTag) was −1.5, the “ΔTm RHEB” value ([7]; listed as DeltaTag) was −0.89 °C and the “ΔAUC SORT1” value ([8]; 10 µM, 15 min) was -3.6. For the same compound, the “ΔI67°C SORT1” value ([8]; 10 µM, 15 min) was -16 ± 7%, the ΔTm at 10 µM ([8]; read-out: ΔTm SORT1, 10 µM, 15 min) was -2.2 ± 2.4 °C and the “ΔAUC SLC38A1” value ([9]; 10 µM, 15 min) was -3.3. For the same compound, the “ΔI67°C SLC38A1” value ([9]; 10 µM, 15 min) was -13 ± 5%, the ΔTm at 10 µM ([9]; read-out: ΔTm SLC38A1, 10 µM, 15 min) was -3.1 ± 0.5 °C and the “ΔAUC LAMTOR3” value ([10]; 10 µM, 15 min) was -2.1. For the same compound, the “ΔI67°C LAMTOR3” value ([10]; 10 µM, 15 min) was -3 ± 2%, the “ΔAUC LAMTOR3” value [10, 11] was −2.1 and the ΔTm at 10 µM ([10]; read-out: ΔTm LAMTOR3, 10 µM, 15 min) was -2.6 ± 1.4 °C.
